Assay results reported in ChEMBL document CHEMBL1201862, “PubChem BioAssay data set” (2004).
Calls of active or inactive are those of the source.

Columns and labels:
[1] = target: Luciferin 4-monooxygenase (Photinus pyralis, UniProt P08659); assay: firefly luciferase enzyme inhibitors, dose response, biochemical, luminescence (AID 1891)
[2] = Luminescence Cell-Based Dose Confirmation HTS to Identify Inhibitors of Platelet Dense Granule Release. [Related pubchem assays: 1663 (Primary HTS), 1678 (Summary of Project)]; format: functional
[3] = cells; format: functional
[4] = target: Voltage-dependent T-type calcium channel subunit alpha-1H (Homo sapiens, UniProt O95180); format: functional;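 further: channel activity triggered by adding a high calcium stimulation buffer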
Voltage-dependent T-type calcium channel subunit alpha-1H, sequence (O95180 whole entry): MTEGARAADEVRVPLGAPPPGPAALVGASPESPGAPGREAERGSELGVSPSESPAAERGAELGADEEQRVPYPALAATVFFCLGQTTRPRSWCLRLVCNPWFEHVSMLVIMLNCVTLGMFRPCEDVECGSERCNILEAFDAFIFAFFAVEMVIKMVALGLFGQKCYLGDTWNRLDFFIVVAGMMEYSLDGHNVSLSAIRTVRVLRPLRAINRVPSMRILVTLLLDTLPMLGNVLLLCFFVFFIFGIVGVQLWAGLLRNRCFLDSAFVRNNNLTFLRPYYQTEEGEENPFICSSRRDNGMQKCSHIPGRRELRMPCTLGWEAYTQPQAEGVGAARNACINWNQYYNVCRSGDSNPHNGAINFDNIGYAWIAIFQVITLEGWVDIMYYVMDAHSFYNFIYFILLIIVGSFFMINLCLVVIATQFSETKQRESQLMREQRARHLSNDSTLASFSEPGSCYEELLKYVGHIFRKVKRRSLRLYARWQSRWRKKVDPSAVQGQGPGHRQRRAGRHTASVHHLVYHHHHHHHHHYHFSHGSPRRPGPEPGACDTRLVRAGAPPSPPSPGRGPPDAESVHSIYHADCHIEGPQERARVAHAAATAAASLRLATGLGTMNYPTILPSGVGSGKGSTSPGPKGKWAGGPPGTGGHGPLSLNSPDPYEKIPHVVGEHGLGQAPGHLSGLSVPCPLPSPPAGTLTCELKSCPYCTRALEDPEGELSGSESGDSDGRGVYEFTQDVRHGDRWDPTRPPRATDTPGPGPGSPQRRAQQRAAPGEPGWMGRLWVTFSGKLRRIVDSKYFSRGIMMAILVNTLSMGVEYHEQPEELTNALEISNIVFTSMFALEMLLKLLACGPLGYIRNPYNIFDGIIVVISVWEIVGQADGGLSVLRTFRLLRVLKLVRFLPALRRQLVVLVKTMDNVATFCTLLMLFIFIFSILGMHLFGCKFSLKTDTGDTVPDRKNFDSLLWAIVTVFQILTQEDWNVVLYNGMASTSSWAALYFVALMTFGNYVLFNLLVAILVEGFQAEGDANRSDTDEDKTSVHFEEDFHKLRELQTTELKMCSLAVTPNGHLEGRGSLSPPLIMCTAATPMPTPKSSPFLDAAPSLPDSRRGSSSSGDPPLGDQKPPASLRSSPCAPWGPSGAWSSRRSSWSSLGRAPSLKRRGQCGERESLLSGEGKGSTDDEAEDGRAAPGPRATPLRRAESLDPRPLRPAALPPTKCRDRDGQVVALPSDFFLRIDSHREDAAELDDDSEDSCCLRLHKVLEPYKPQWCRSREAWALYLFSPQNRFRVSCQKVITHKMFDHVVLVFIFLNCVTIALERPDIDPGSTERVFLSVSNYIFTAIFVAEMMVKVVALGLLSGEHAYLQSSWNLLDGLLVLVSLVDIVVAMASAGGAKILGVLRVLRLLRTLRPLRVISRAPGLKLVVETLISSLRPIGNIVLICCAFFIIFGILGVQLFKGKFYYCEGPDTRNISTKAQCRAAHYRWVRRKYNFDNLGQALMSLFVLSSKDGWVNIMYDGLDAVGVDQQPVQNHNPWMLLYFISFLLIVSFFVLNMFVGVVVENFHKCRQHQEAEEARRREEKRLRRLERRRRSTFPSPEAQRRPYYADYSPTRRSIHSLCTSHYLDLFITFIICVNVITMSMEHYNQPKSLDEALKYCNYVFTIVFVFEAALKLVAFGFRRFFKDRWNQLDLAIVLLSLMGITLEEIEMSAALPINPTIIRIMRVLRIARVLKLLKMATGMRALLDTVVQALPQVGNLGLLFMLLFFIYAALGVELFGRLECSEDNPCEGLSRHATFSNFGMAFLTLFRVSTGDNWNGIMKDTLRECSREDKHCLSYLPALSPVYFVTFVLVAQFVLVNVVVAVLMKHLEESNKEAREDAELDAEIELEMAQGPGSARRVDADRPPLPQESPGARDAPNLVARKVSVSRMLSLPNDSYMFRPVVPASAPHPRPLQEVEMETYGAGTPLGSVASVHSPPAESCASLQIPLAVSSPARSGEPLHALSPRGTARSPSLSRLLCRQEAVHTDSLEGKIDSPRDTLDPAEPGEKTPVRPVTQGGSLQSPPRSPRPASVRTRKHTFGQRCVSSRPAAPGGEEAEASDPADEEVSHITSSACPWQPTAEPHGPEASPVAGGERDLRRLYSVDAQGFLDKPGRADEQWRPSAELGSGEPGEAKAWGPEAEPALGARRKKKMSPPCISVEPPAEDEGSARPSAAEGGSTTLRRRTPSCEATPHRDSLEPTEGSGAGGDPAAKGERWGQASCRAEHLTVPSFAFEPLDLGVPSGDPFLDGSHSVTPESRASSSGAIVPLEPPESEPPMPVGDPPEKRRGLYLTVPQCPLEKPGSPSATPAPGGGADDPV

[5] = tested on: H4; assay: Luminescence Cell-Based Dose Response HTS to Identify Activators of 5'UTR Stem-Loop Driven Prion Protein mRNA Translation in H4 Neuroglioblastoma Cells. [Related pubchem assays: 1829 (Project Summary), 1814 (Primary HTS)]; format: functional; conditions: Homo sapiens
[6] = Luminescence Cell-Based Dose Response HTS to Identify Activators of Luciferase Translation or Activity in H4 […] Cells. [Related pubchem assays: 1829 (Project Summary), 1814 (Primary HTS)]; format: functional
[7] = target: Cytochrome P450 3A4 (Homo sapiens, UniProt P08684); conditions: Potency;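 further: confirmatory qHTS run detecting inhibitors and substrates of CYP3A4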
Cytochrome P450 3A4, sequence (P08684 whole entry): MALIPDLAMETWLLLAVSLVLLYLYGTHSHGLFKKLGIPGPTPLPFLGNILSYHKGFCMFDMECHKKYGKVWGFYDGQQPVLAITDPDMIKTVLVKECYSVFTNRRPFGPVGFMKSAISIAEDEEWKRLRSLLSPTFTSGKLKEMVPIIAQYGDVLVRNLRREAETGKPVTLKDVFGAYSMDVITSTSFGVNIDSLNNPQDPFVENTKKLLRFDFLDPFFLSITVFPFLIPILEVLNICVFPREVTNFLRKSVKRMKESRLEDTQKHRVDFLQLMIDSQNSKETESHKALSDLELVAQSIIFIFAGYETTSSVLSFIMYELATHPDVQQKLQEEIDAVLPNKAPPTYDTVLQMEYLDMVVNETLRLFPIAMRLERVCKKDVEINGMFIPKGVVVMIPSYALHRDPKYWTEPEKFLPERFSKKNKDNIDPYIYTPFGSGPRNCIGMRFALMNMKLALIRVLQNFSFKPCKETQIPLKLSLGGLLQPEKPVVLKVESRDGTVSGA

[8] = tested on: Streptococcus; assay: Group A Streptococcus viability loss, dose response, counter-screen for streptokinase expression inhibitor project, luminescence, BacTiterGlo (AID 1915); format: functional, organism-based;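 further: potency for reduction of bacterial viability or growth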
[9] = tested on: Streptococcus sp. 'group A'; assay: growth inhibition of control SK(-) GAS strain, dose response, counter-screen for streptokinase expression inhibitor project, luminescence, kanamycin, BacTiterGlo, confirmation (AID 1900); format: functional, organism-based
[10] = target: T1, DNA repair protein RAD52 homolog (Homo sapiens, UniProt P43351); format: functional, biochemical
T1 sequence (P43351 whole entry): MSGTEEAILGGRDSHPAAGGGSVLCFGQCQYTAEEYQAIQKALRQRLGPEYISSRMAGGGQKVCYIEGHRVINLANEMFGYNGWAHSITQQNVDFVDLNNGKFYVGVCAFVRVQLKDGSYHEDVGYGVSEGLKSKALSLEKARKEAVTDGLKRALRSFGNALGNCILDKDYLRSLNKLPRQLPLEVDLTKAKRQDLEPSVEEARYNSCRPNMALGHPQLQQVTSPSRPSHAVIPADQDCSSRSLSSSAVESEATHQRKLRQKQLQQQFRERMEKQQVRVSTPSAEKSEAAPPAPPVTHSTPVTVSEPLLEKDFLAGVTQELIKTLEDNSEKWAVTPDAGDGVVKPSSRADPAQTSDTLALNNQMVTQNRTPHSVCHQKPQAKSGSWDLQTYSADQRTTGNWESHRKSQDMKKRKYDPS

[11] = target: T2, Ubiquitin-conjugating enzyme E2 N (Homo sapiens, UniProt P61088); format: functional;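 further: Dose-response confirmation in a TR-FRET assay detecting UBC13-driven polyubiquitin chain formation, inhibition measured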
T2 sequence (P61088 whole entry): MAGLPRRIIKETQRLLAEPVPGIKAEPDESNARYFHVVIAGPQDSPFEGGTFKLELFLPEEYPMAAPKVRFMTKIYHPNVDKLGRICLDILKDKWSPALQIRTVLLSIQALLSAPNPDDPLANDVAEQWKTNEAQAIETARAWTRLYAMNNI

[12] = target: T3, Streptokinase A (Streptococcus pyogenes serotype M1, UniProt P10520); assay: S. pyogenes streptokinase expression inhibitors, potency, dose response, plasminogen activation absorbance, OD405 (AID 1914); format: functional, Streptococcus pyogenes M1 GAS;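 further: secreted streptokinase activity via plasminogen activation per viability signal from cell pellet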
T3 sequence (P10520 whole entry): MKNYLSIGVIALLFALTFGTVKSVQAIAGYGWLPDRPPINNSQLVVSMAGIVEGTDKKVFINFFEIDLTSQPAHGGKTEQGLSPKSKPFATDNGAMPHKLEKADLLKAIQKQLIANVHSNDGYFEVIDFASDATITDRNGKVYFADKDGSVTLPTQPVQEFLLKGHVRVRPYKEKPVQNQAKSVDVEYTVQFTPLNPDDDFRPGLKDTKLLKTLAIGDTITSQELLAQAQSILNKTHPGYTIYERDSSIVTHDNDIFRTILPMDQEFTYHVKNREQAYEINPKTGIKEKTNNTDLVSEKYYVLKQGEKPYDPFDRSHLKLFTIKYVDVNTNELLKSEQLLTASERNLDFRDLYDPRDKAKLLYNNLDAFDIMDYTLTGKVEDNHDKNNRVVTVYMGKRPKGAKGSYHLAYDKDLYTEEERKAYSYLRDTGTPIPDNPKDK

[13] = target: Nonstructural protein 1 (Influenza A virus, UniProt Q194T2); format: functional, Influenza A virus (A/California/07/2009(H1N1))
Nonstructural protein 1, sequence (Q194T2 whole entry): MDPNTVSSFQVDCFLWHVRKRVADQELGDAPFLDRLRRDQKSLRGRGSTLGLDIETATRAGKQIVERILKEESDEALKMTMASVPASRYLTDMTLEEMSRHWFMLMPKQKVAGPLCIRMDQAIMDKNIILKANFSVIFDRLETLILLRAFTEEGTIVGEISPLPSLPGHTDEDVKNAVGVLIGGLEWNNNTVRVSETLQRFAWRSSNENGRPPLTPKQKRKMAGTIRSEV

[14] = target: T4, Heat shock factor protein 1 (Mus musculus, UniProt P38532); assay: inhibition of MG132-induced HSE-luciferase signal, confirmation, cell-based, NIH3T3, luminescence, dose retest (AID 2382); format: functional;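 further: NIH3T3 fibroblasts with HSF1-driven luciferase reporter stressed by proteasome inhibitor MG132; luminescence from HSF1-driven luciferase expression after 8 hours of MG132 stress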
T4 sequence (P38532 whole entry): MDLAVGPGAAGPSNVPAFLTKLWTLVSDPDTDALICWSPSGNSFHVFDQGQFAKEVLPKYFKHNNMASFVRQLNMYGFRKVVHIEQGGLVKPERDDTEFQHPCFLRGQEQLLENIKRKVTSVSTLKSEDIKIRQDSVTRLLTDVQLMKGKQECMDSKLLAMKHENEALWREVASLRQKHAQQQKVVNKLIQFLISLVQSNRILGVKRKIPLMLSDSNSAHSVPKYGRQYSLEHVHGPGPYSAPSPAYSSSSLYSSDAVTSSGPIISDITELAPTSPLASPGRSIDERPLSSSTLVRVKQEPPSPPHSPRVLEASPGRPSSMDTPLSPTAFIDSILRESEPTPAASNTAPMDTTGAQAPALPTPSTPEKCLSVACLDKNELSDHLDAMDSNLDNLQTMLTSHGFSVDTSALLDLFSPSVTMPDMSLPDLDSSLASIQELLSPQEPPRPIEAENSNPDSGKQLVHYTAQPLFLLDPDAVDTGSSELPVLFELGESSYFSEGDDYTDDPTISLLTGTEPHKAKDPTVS

[15] = target: T5, Zinc finger protein mex-5 (Caenorhabditis elegans, UniProt Q9XUB2); assay: MEX-5/TCR-2 RNA interaction inhibitors, dose response, biochemical, C. elegans, fluorescence polarization (AID 1960)
T5 sequence (Q9XUB2 whole entry): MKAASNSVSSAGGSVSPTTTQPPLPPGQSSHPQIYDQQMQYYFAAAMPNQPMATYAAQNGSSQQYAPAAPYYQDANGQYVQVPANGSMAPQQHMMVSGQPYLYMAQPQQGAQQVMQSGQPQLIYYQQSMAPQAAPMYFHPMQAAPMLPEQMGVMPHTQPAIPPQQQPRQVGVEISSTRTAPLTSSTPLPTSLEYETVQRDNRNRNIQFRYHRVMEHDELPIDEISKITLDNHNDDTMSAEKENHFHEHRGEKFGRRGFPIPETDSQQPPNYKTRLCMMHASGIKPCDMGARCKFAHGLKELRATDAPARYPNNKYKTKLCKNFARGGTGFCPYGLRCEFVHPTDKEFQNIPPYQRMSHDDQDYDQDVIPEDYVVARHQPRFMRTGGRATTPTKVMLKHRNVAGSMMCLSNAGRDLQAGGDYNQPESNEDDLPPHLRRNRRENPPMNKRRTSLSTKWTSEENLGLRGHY

[16] = target: T6, RNA-binding protein pos-1 (Caenorhabditis elegans, UniProt G5EF15); assay: inhibitors of POS-1/mex-3 RNA binding, dose response, biochemical, fluorescence polarization (AID 1964);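 further: purified POS-1 fused to maltose binding protein made in E. coli; potency of compounds blocking POS-1 binding to fluorescent RNA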
T6 sequence (G5EF15 whole entry): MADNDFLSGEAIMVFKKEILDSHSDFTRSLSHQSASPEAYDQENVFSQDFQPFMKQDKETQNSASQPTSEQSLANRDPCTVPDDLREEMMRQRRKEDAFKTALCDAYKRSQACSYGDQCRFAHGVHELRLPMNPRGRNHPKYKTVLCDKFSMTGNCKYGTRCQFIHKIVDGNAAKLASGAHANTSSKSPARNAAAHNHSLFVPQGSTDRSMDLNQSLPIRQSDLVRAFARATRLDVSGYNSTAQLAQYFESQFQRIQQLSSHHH

[17] = target: T7, Leucine aminopeptidase (Plasmodium falciparum 3D7, UniProt Q8IL11); assay: P. falciparum M17LAP inhibitors, primary screen, biochemical, fluorogenic H-Leu-NHMec substrate, 1536-well (AID 1619); format: functional
T7 sequence (Q8IL11 whole entry): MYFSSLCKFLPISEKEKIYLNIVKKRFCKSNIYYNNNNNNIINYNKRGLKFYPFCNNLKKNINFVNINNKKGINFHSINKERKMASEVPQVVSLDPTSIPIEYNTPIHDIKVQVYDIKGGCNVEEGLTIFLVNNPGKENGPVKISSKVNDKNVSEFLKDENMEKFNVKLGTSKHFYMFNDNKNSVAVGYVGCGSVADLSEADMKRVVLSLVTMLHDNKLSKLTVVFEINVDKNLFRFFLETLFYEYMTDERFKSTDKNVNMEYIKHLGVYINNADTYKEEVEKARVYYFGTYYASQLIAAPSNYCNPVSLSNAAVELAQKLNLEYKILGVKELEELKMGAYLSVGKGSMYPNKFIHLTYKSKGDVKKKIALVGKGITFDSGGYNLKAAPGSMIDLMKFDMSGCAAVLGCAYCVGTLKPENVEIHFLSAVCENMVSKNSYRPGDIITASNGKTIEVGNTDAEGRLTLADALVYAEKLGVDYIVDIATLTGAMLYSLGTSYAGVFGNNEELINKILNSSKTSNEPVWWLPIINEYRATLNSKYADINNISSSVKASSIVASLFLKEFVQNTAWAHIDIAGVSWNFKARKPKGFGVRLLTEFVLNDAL

[18] = target: T4, Heat shock factor protein 1; assay: HSF1 potentiators in luciferase reporter cells, confirmation, cell-based, NIH3T3, luminescence, dose retest (AID 435004); format: functional;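 further: stress induced by proteasome inhibitor MG132 added 30 min after compound; luciferase reporter driven by HSF1 response element in NIH3T3 cells; actives raise luminescence as potentiators of the MG132 stress response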
[19] = A cytotoxicity screen of small molecule inhibitors of the PhoP region in Salmonella typhi identified in the primary screen. [Related pubchem assays: 1850, 1864, 1985 ]; format: functional
[20] = microbe, parasite or virus in culture; format: functional; conditions: Mycobacterium tuberculosis
[21] = inhibitors of intracellular T. cruzi replication, confirmation, NIH3T3 host cells, beta-gal luminescence (AID 2044); format: functional, cell-based;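 further: intracellular parasites grown in NIH/3T3 mouse fibroblasts as host cells; luminescent beta-galactosidase reporter signal from transgenic T. cruzi replicating inside host cells; inhibitors lower the luminescence signal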
[22] = cytotoxicity toward NIH3T3 fibroblasts, dose response, counter-screen, cell-based, ATP luminescence, mouse fibroblasts (AID 2010); format: functional;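 further: cells exposed to compound for about 90 hours before reading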

Luciferin 4-monooxygenase, sequence (P08659 whole entry): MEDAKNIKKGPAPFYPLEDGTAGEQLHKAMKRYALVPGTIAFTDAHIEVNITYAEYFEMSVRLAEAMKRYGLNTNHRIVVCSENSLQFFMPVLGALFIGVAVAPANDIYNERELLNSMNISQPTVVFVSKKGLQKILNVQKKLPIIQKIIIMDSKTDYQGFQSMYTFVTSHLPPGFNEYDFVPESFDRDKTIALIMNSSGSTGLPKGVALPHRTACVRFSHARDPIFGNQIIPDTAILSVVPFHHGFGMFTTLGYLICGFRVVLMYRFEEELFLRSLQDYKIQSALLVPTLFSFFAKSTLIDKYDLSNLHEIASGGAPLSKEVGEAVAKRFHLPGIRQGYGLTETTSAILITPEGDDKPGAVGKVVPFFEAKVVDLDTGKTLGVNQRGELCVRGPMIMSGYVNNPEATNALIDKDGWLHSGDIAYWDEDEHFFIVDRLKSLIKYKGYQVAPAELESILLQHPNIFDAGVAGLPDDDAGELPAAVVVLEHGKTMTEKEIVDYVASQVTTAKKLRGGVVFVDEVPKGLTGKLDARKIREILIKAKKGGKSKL

COc1cc(/C=C2/C(=O)NN(c3cccc(F)c3)C2=O)ccc1OC(=O)c1ccco1
EC50 [1]: > 112 µM (not active) | EC50 [2]: > 112 µM (not active) | IC50 [3]: 16.7 µM (active)

O=C(Nc1cnc2ccccc2c1)C1COc2ccccc2O1 (centres undefined)
EC50 [4]: 2.93 µM (active) | EC50 [5]: 37.6 µM (active) | EC50 [6]: < 0.1 µM (active)

Cc1nc(NCc2ccccc2)c2nc(-c3ccccc3)n(CCN(C)C)c2n1
AC50 [7]: 12.6 µM (inconclusive)

CCC1=C2CC[C@H]3C(=O)N(c4ccccc4)C(=O)[C@H]3[C@H]2[C@@]2(C)C(=O)N(CC(=O)OC)C(=O)N2C1=O
AC50 [7]: 15.8 µM (inconclusive)

COC(=O)COc1ccc2c(-c3ccc(OC)cc3)cc(=O)oc2c1
IC50 [3]: 1.43 µM (active)

CN(C)CCCN=C(S)NCC(c1ccc(Cl)cc1Cl)c1c[nH]c2ccccc12 (centres undefined)
EC50 [8]: 15.4 µM (active) | EC50 [9]: 5 µM (active) | AC50 [10]: 6.45 µM (active) | IC50 [11]: > 20 µM (inactive) | EC50 [12]: > 150 µM (not active) | IC50 [13]: 65.8 µM (active)

CNC(=O)NC(=O)COC(=O)c1ccc(-n2c(C)ccc2C)cc1
EC50 [14]: > 195 µM (not active) | EC50 [15]: > 300 µM (not active) | EC50 [16]: > 300 µM (not active)

CCOc1ccc(NC(=O)COC(=O)c2cccnc2)cc1
IC50 [17]: 27.4 µM (active)

CCn1c(SCCOc2ccc(Cl)cc2)nnc1-c1cccs1
EC50 [4]: 5.63 µM (active) | EC50 [18]: > 260 µM (inactive)

CN1Cc2c(c(C#N)c(N)n(C)c2=S)CC1(C)C
EC50 [15]: 29.1 µM (active) | EC50 [16]: 35.4 µM (active)

Cc1nccn1CC(=O)N/N=C/c1ccccc1O
IC50 [13]: 18.4 µM (active)

CCN(CC)c1ccc(C(=C2C=CC(=[N+](CC)CC)C=C2)c2ccc(S(=O)(=O)O)cc2S(=O)(=O)[O-])cc1
IC50 [13]: 17.7 µM (active)

Cc1cc(S(=O)(=O)Nc2cccc(O)c2)c(C)s1
IC50 [17]: 14.6 µM (active)

Cc1ncc(N=Nc2ccccc2Cl)c(-c2ccccc2)n1
IC50 [13]: 39.1 µM (active)

Cc1ccc(S(=O)(=O)NCC(=O)N(CC(=O)NCc2ccco2)Cc2ccc3c(c2)OCO3)cc1
EC50 [4]: 3.4 µM (active)

Cn1c(=O)cc(SCC(=O)N2CCN(C3CCCCC3)CC2)c2ccccc21
IC50 [11]: > 20 µM (inactive) | EC50 [19]: > 50 µM (active)

Cc1c(N2C(=O)/C(=C/c3cccc4ccccc34)SC2=S)c(=O)n(-c2ccccc2)n1C
IC50 [13]: > 100 µM (active)

Cc1onc(-c2ccccc2Cl)c1C(=O)Nc1ccc(F)c(F)c1
EC50 [4]: 5.58 µM (active) | EC50 [1]: > 112 µM (not active) | EC50 [2]: > 112 µM (not active)

CN1CCN(/N=C/c2c3ccccc3c(Cl)c3ccccc23)CC1
CC50 [20]: 24 µM (active) | IC50 [13]: 24.9 µM (active)

C[C@@H]1C=C[C@](Cc2ccccc2)(C(=O)NCCCNc2ncc(C(F)(F)F)cc2Cl)N1C(=O)c1ccccc1
AC50 [7]: 3.98 µM (inconclusive)

Cc1nc2c(-c3ccc(F)cc3)c(C)nn2c(C)c1CCC(=O)N1CCC(Cc2ccccc2)CC1
EC50 [4]: 6.64 µM (active)

COC(=O)[C@@H]1C[C@@]2(O)[C@@H](O)[C@@H](O)[C@@H](O)C[C@H]2N1CC1CCCCC1
AC50 [7]: 12.6 µM (inconclusive)

Cc1cccc(N2CCN(Cc3ccc([N+](=O)[O-])o3)CC2)c1C
EC50 [21]: 1.36 µM (active) | EC50 [22]: > 60 µM (not active) | IC50 [3]: 0.37 µM (active)

CCN1C(=O)/C(=C/c2c(C)nn(C)c2C)SC1=S
EC50 [15]: 189 µM (inconclusive) | EC50 [16]: 254 µM (inconclusive)
